Results on one molecule are retold here after publication PMC9817100, “Preclinical profiles of SKB264, a novel anti-TROP2 antibody conjugated to topoisomerase inhibitor, demonstrated promising antitumor efficacy compared to IMMU-132” (Frontiers in Oncology, 2022).

SMILES strings stand for the structures.

Data set [1] is described as follows: tissue distribution after single i.v. injection in tumor-bearing nude mice. Type of data set: in vivo. The settings on record: [3H]KL610023 0.1 mg/100 µCi/kg single i.v.; HCC1806 xenografted nude mice. As to the method: A total of 96 female nude mice bearing human HCC1806 tumor cells were divided into 16 groups (n = 6 mice/group) according to body weights and tumor volumes. After receiving a single i.v. injection of [^3H]KL610023, at 0.083, 4, 24, and 72 h, as well as a single i.v. injection of [^3H-KL610023]SKB264, [^3H]SKB264-mAb, or [^3H-mAb]SKB264 at 1, 24, 168, and 336 h post-dosing, blood, tumor tissue, and 16 types of normal tissues were collected from the euthanized mice.
Plasma samples were directly quantified by liquid scintillation counting (LSC) without further manipulation; however, the blood and tissue samples were digested with 1N of KOH at 90°C prior to quantification by LSC. The […] (TRA) for blood, plasma, and tissues was converted to nanogram equivalent of [^3H]KL610023 or TRA (ng Eq./g).

A short description of data set [2]: payload KL610023 PK in plasma of cynomolgus monkey (Table 5). Conditions: KL610023 administered, n=4, dose not given. On the set-up: Vz_obs / Cl_obs: unit not given here. Format: in vivo. From the text:
Since the metabolism of ADC is different from that of the toxic payload ([30], [31]), the linkage of SKB264 mAb can dramatically prolong the half-life of KL610023 as compared to KL610023 alone. Nevertheless, after being released from SKB264, KL610023 could be rapidly eliminated. […] Overall, the proprietary technology used in our study to construct SKB264 could ensure a more precise delivery process.

A further data set has as its target T1, DNA topoisomerase I (Homo sapiens, UniProt P11387).
T1 sequence (P11387 1-765): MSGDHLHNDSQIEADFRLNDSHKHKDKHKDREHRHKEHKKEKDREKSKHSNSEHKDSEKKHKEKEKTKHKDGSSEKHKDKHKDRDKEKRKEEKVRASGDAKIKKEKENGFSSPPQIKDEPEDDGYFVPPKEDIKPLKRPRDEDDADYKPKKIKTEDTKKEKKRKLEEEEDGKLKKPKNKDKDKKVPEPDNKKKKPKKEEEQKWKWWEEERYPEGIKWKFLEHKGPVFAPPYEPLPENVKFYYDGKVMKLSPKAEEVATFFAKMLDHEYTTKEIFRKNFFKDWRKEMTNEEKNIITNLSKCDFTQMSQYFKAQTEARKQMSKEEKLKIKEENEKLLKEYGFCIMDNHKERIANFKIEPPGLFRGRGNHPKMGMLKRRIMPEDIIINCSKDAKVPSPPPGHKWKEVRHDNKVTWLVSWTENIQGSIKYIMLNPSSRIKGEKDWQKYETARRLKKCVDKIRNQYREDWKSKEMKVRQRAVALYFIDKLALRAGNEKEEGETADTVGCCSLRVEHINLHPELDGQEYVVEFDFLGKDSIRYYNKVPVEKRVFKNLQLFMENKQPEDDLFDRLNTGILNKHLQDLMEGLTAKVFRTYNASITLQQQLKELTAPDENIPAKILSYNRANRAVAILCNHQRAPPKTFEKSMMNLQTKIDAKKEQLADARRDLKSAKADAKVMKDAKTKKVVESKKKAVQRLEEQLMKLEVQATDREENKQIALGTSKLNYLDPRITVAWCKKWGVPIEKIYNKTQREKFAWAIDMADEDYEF
Kind of data set: topoisomerase I-mediated DNA relaxation assay (cell-free). Conditions: read-out: DNA topoisomerase I inhibition (IC50). Format: biochemical. From the text: SKB264 is a TROP2-targeting ADC, which consists of a recombinant humanized anti-TROP2 antibody and a topoisomerase I inhibitor derived from Belotecan (KL610023), integrated together via a sulfonyl pyrimidine-CL2A-carbonate linker. The payload is conjugated with the antibody through irreversible nucleophilic aromatic substitution by tris (2-carboxyethyl) phosphine hydrochloride (TCEP HCl), a reducing agent that can reduce the interchain disulfide bounds. The drug-to-antibody ratio (DAR) of SKB264 was approximately 7.4, which was determined by the reversed-phase chromatography (RPC), and might be the theoretical maximum drug loading number for conventional interchain cysteine conjugation ( Figure 1B ). SKB264 was designed to release payload KL610023 after internalization by TROP2-expressing tumor cells. The inhibitory effect of KL610023 on topoisomerase I was almost similar to that of SN-38, as measured by a topoisomerase I-mediated DNA relaxation assay ( Figure 1C ).
Figure 1 Structure and characterization of SKB264. […] (B) The distribution of the conjugated drug determined by the reverse-phase chromatography analysis (L-0: Unconjugated light chain, L-1: Light chain conjugated with one payload, H-0: Unconjugated heavy chain, H-1: Heavy chain conjugated with one payload, H-2: Heavy chain conjugated with two payloads, H-3: Heavy chain conjugated with three payloads). […]

For the next data set, the system named is NCI-H23 (TROP2-). As to the kind of experiment: cytotoxic assay (CellTiter-Glo, 72 h) NCI-H23 (parental). Type of data set: cell-based. Conditions: Homo sapiens, read-out: IC50 cell growth inhibition. As to the method:
(§1) Tumor cells were seeded on 96-well plates at the following concentrations: HCC1806 (3,000 cells per well), NCI-N87 (5,000 cells per well), BxPC-3 (2,000 cells per well), Calu-3 (8,000 cells per well), NCI-H23 (TROP2+, 3,000 cells per well), and NCI-H23 (parental, 3,000 cells per well). After overnight incubation, the diluted testing items were added respectively. After 72 h, cell viability was evaluated using a CellTiter-Glo Luminescent Cell Viability Assay (Promega Corp. Madison, WI), following the manufacturer’s instruction.

Another data set relates to Calu-3 (TROP2+). As to the kind of experiment: cytotoxic assay (CellTiter-Glo, 72 h) Calu-3. Type of data set: cell-based. The settings on record: Homo sapiens, read-out: IC50 cell growth inhibition. As to the method:
as §1

For `CC[C@@]1(O)C(=O)OCc2c1cc1n(c2=O)Cc2c-1nc1ccccc1c2CCN(C(C)C)S(C)(=O)=O` [KL610023], in data set [1], the “distribution of total radioactivity” value is “widely distributed in the tissues and organs that had more abundant blood flow”. In data set [2], this molecule yielded an area under the curve AUC(0-inf) of 97 ± 26.9 ng·h/mL, an AUC(0-t) of 97 ± 26.7 ng·h/mL, a Cl_obs of 535 ± 148 and a Cmax of 273 ± 54.4 ng/mL. Moreover, in data set [2], the Vz_obs is listed as 1119 ± 548 and the half-life is 1.6 h. The IC50 on DNA topoisomerase I turned out to be 700 nM. For the same molecule, the IC50 with NCI-H23 (TROP2-) came to 2.14 nM. The IC50 in the data set on Calu-3 (TROP2+) was 1.36 nM.
